Experimental data as given in ChEMBL document CHEMBL1201862, “PubChem BioAssay data set” (2004).
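Grown in 96-well plates, cells were treated for 48 hours with each compound at five concentrations. Insufficient inhibition: endpoint recorded as highest concentration tested. GI50 is the concentration that inhibits growth by half.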 Activity calls are given as the source filed them. Cut-off read from the data, not from the text of the source: active = GI50 up to about 1.1 µM and inactive = higher.

Columns and labels:
Experiment in all cases: NCI tumour cell line growth inhibition, 48 h
M14 = system: M14
KM12 = system: KM12
IGROV-1 = system: IGROV-1
K562 = system: K562
NCI-H522 = system: NCI-H522
CAKI-1 = system: CAKI-1
RXF 393 = system: RXF 393
U-251 = system: U-251
HOP-62 = system: HOP-62
786-0 = system: 786-0
SK-MEL-5 = system: SK-MEL-5
SK-MEL-2 = system: SK-MEL-2
CCRF-CEM = system: CCRF-CEM
SK-OV-3 = system: SK-OV-3
SNB-75 = system: SNB-75
HOP-92 = system: HOP-92
Malme-3M = system: Malme-3M
NCI-H226 = system: NCI-H226
SF-539 = system: SF-539

SMILES	GI50 (M14)	GI50 (KM12)	GI50 (IGROV-1)	GI50 (K562)	GI50 (NCI-H522)	GI50 (CAKI-1)	GI50 (RXF 393)	GI50 (U-251)	GI50 (HOP-62)	GI50 (786-0)	GI50 (SK-MEL-5)	GI50 (SK-MEL-2)	GI50 (CCRF-CEM)	GI50 (SK-OV-3)	GI50 (SNB-75)	GI50 (HOP-92)	GI50 (Malme-3M)	GI50 (NCI-H226)	GI50 (SF-539)
C=C/C=C/NC(=O)OCc1ccccc1	> 100 µM (inactive)	> 100 µM (inactive)	> 100 µM (inactive)	> 100 µM (inactive)	> 100 µM (inactive)	> 100 µM (inactive)	> 100 µM (inactive)	> 100 µM (inactive)	> 100 µM (inactive)	> 100 µM (inactive)	> 100 µM (inactive)	> 100 µM (inactive)	> 100 µM (inactive)	> 100 µM (inactive)	> 100 µM (inactive)	> 100 µM (inactive)	–	–	–
N=S(c1ccccc1[N+](=O)[O-])c1ccccc1[N+](=O)[O-]	2.09 µM (inactive)	6.65 µM (inactive)	2.34 µM (inactive)	–	0.561 µM (active)	3.3 µM (inactive)	4.06 µM (inactive)	–	5.96 µM (inactive)	1.95 µM (inactive)	3.2 µM (inactive)	4.84 µM (inactive)	0.687 µM (active)	6.27 µM (inactive)	6.34 µM (inactive)	1.98 µM (inactive)	3.26 µM (inactive)	5.6 µM (inactive)	4.58 µM (inactive)
[O-][n+]1ccccc1S [PYRITHIONE ZINC]	1.25 µM (inactive)	1.38 µM (inactive)	1.14 µM (inactive)	0.107 µM (active)	0.107 µM (active)	5.13 µM (inactive)	0.135 µM (active)	1.34 µM (inactive)	4.34 µM (inactive)	0.343 µM (active)	1.22 µM (inactive)	1.49 µM (inactive)	0.0331 µM (active)	17.4 µM (inactive)	3.03 µM (inactive)	3.24 µM (inactive)	2.45 µM (inactive)	10.2 µM (inactive)	1.97 µM (inactive)
CC(C)C1=CC23CCC4C(C)(C(=O)O)CCCC4(C)C2CC1C1C(=O)N(c2ccc(Cc4ccc(N5C(=O)C6C7CC8C9(C)CCCC(C)(C(=O)O)C9CCC8(C=C7C(C)C)C6C5=O)cc4)cc2)C(=O)C13 (stereo not given)	9.44 µM (inactive)	5.97 µM (inactive)	–	7.87 µM (inactive)	8.18 µM (inactive)	–	13 µM (inactive)	3.94 µM (inactive)	11.6 µM (inactive)	10.9 µM (inactive)	12.4 µM (inactive)	12 µM (inactive)	5.41 µM (inactive)	–	–	20.1 µM (inactive)	16.7 µM (inactive)	13.6 µM (inactive)	4.16 µM (inactive)
CC1CCCCc2nc3c(c(=O)n21)CCCC3 (stereo not given)	> 100 µM (inactive)	> 100 µM (inactive)	> 100 µM (inactive)	> 100 µM (inactive)	> 100 µM (inactive)	> 100 µM (inactive)	–	> 100 µM (inactive)	> 100 µM (inactive)	> 100 µM (inactive)	–	> 100 µM (inactive)	–	> 100 µM (inactive)	> 100 µM (inactive)	> 100 µM (inactive)	> 100 µM (inactive)	> 100 µM (inactive)	> 100 µM (inactive)
CC(=O)O[C@H]1CC[C@@]2(C)C(=CC[C@@H]3C2CC[C@]2(C)C(=O)NC(=O)CC32)C1 (stereo not given in full)	> 100 µM (inactive)	> 100 µM (inactive)	> 100 µM (inactive)	> 56 µM (inactive)	27.9 µM (inactive)	> 100 µM (inactive)	35.5 µM (inactive)	58.6 µM (inactive)	> 100 µM (inactive)	63.5 µM (inactive)	> 100 µM (inactive)	> 100 µM (inactive)	> 73.8 µM (inactive)	> 100 µM (inactive)	> 100 µM (inactive)	> 100 µM (inactive)	> 100 µM (inactive)	> 100 µM (inactive)	> 100 µM (inactive)
COC1=CC(=O)c2ccccc2C1(CCC=C(C)C)C1=NC(C)(C)CO1 (stereo not given)	> 100 µM (inactive)	> 100 µM (inactive)	84.5 µM (inactive)	28.4 µM (inactive)	42.4 µM (inactive)	> 100 µM (inactive)	56.4 µM (inactive)	80.4 µM (inactive)	> 100 µM (inactive)	> 100 µM (inactive)	> 100 µM (inactive)	83.6 µM (inactive)	28.6 µM (inactive)	86.5 µM (inactive)	> 100 µM (inactive)	99.3 µM (inactive)	78.7 µM (inactive)	> 100 µM (inactive)	> 100 µM (inactive)
Cc1ccccc1NC(=O)C(=O)C1CN(c2ccccc2)N=C1N (stereo not given)	> 100 µM (inactive)	–	> 100 µM (inactive)	> 100 µM (inactive)	> 100 µM (inactive)	> 100 µM (inactive)	> 100 µM (inactive)	> 100 µM (inactive)	> 100 µM (inactive)	> 100 µM (inactive)	> 10 µM (inactive)	–	> 100 µM (inactive)	> 100 µM (inactive)	86.5 µM (inactive)	> 100 µM (inactive)	> 100 µM (inactive)	> 100 µM (inactive)	> 100 µM (inactive)
CC(=O)OC(C)(C)C[N+](=O)[O-]	> 100 µM (inactive)	> 100 µM (inactive)	> 100 µM (inactive)	> 100 µM (inactive)	63.4 µM (inactive)	> 100 µM (inactive)	> 100 µM (inactive)	> 100 µM (inactive)	> 100 µM (inactive)	> 100 µM (inactive)	–	> 100 µM (inactive)	> 100 µM (inactive)	> 100 µM (inactive)	> 100 µM (inactive)	> 100 µM (inactive)	> 100 µM (inactive)	> 100 µM (inactive)	> 100 µM (inactive)
CCCc1c(C(=O)OCC)[nH]c(-c2ccc(-c3[nH]c(C(=O)OCC)c(CCC)c3C(=O)OCC)o2)c1C(=O)OCC	> 100 µM (inactive)	> 100 µM (inactive)	> 100 µM (inactive)	> 100 µM (inactive)	> 100 µM (inactive)	> 100 µM (inactive)	> 100 µM (inactive)	> 100 µM (inactive)	–	> 100 µM (inactive)	> 100 µM (inactive)	> 100 µM (inactive)	> 100 µM (inactive)	> 100 µM (inactive)	> 100 µM (inactive)	> 100 µM (inactive)	> 100 µM (inactive)	> 100 µM (inactive)	> 100 µM (inactive)
CC1(C)c2ccccc2C(C)(C)C(C(=O)Nc2ccccc2)C1C(=O)O (stereo not given)	> 100 µM (inactive)	> 100 µM (inactive)	–	> 100 µM (inactive)	> 100 µM (inactive)	–	> 100 µM (inactive)	> 100 µM (inactive)	> 100 µM (inactive)	> 100 µM (inactive)	> 100 µM (inactive)	> 100 µM (inactive)	> 100 µM (inactive)	> 100 µM (inactive)	> 100 µM (inactive)	> 100 µM (inactive)	> 100 µM (inactive)	> 100 µM (inactive)	> 100 µM (inactive)
CCC1=CCN(c2cc(C)ccn2)OC1c1ccc(OC)cc1 (stereo not given)	32.5 µM (inactive)	31.2 µM (inactive)	55.7 µM (inactive)	34 µM (inactive)	16 µM (inactive)	34.4 µM (inactive)	22.3 µM (inactive)	21.5 µM (inactive)	44.3 µM (inactive)	34.8 µM (inactive)	16.9 µM (inactive)	16.9 µM (inactive)	23.7 µM (inactive)	48.8 µM (inactive)	33.7 µM (inactive)	–	27 µM (inactive)	38.3 µM (inactive)	> 10 µM (inactive)
Cc1cc(C(C)(C)C)cc(Cc2cc(C(C)(C)C)cc(Cc3cc(C(C)(C)C)cc(C)c3O)c2O)c1O	7.26 µM (inactive)	9.66 µM (inactive)	11.3 µM (inactive)	4.54 µM (inactive)	3.71 µM (inactive)	12.6 µM (inactive)	2.19 µM (inactive)	4.07 µM (inactive)	15.4 µM (inactive)	5.64 µM (inactive)	10 µM (inactive)	10.4 µM (inactive)	3.04 µM (inactive)	14.1 µM (inactive)	4.49 µM (inactive)	2.94 µM (inactive)	10.7 µM (inactive)	12.1 µM (inactive)	7.71 µM (inactive)
CCOC(=O)C1=C(Nc2ccccc2)OC/C1=N\NC(=O)Cc1ccccc1	> 50 µM (inactive)	> 50 µM (inactive)	> 50 µM (inactive)	> 50 µM (inactive)	> 50 µM (inactive)	> 50 µM (inactive)	> 50 µM (inactive)	> 50 µM (inactive)	> 50 µM (inactive)	> 50 µM (inactive)	> 50 µM (inactive)	> 50 µM (inactive)	> 50 µM (inactive)	> 50 µM (inactive)	31.4 µM (inactive)	> 50 µM (inactive)	> 50 µM (inactive)	> 50 µM (inactive)	> 50 µM (inactive)
CC(C)(C)C1=NO[C@H]2[C@@H](NC(=O)c3ccccc3)CC[C@@H]12	> 100 µM (inactive)	> 100 µM (inactive)	> 100 µM (inactive)	> 100 µM (inactive)	> 100 µM (inactive)	> 100 µM (inactive)	> 100 µM (inactive)	> 100 µM (inactive)	> 100 µM (inactive)	> 100 µM (inactive)	> 100 µM (inactive)	–	> 100 µM (inactive)	> 100 µM (inactive)	38.3 µM (inactive)	98.2 µM (inactive)	> 100 µM (inactive)	> 100 µM (inactive)	> 100 µM (inactive)
